Blank lines part the entries; values can stand above or below the compound they belong to.
Key:
[1] = molecular target: T1, 5-hydroxytryptamine receptor 2A (Homo sapiens, UniProt P28223); assay: Displacement of [3H]Ketanserin from human 5HT2A receptor at 10 uM
[2] = molecular target: T2, 5-hydroxytryptamine receptor 2C (Homo sapiens) (UniProt P28335); assay: Displacement of [3H]Mesulergine from human 5HT2C receptor at 10 uM
T2 sequence (whole entry): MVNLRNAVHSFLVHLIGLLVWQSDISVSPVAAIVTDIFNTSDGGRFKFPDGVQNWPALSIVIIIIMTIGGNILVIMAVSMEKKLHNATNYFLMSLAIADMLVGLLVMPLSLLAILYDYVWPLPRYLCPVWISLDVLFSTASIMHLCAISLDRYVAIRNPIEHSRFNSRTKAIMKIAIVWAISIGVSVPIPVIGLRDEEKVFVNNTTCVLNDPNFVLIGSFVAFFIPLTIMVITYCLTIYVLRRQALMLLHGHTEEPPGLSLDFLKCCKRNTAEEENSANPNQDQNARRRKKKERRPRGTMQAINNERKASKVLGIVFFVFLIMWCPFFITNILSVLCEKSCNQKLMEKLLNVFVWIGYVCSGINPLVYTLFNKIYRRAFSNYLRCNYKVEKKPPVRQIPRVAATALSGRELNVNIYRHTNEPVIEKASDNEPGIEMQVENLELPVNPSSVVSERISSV

[3] = molecular target: T3, 5-hydroxytryptamine receptor 2C (Homo sapiens, UniProt P28335); assay: Displacement of [3H]Mesulergine from human 5HT2C receptor
T3 sequence (P28335 whole entry): T2 sequence (whole entry)

[4] = molecular target: T4, 5-hydroxytryptamine receptor 2B (Homo sapiens, UniProt P41595); assay: Displacement of [3H]LSD from human 5HT2B receptor at 10 uM
T4 sequence (P41595 whole entry): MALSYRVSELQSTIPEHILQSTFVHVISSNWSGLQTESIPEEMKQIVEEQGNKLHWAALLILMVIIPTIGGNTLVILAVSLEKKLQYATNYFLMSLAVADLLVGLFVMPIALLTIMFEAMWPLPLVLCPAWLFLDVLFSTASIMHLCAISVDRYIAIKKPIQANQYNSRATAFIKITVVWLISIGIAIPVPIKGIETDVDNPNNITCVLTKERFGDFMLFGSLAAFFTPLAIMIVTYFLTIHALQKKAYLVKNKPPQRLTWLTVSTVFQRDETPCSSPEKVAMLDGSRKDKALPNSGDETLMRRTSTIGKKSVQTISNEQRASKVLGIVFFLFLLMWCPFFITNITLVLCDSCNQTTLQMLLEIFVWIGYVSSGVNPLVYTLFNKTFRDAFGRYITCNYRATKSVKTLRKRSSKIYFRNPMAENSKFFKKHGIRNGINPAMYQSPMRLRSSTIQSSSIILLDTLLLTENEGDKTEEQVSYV

[5] = molecular target: T1, 5-hydroxytryptamine receptor 2A; assay: Displacement of [3H]Ketanserin from human 5HT2A receptor
[6] = molecular target: T4, 5-hydroxytryptamine receptor 2B; assay: Displacement of [3H]LSD from human 5HT2B receptor
[7] = molecular target: T5, Sodium-dependent dopamine transporter (Homo sapiens, UniProt Q01959); assay: Displacement of [3H][…] from human DAT
T5 sequence (Q01959 whole entry): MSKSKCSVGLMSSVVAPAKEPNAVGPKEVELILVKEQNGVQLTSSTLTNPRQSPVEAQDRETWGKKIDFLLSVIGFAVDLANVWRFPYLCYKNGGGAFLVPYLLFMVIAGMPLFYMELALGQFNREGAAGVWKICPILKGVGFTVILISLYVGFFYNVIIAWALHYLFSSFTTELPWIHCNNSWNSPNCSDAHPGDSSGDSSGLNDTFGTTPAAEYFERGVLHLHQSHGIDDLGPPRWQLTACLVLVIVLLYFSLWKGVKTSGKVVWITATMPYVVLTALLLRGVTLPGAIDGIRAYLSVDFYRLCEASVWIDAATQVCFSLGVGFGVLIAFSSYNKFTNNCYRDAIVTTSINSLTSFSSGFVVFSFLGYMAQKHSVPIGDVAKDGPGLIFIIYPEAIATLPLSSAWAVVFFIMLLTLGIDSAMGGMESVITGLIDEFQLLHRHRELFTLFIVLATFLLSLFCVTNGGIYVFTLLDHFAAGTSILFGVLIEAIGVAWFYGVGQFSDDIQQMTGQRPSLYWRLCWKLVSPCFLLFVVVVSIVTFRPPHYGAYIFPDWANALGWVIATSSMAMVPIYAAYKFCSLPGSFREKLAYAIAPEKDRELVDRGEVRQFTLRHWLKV

[8] = molecular target: T6, Sodium-dependent serotonin transporter (Homo sapiens, UniProt P31645); assay: Displacement of [3H]Citalopram from human SERT
[9] = molecular target: 5-hydroxytryptamine receptor 7 (Homo sapiens) (UniProt P34969); assay: Displacement of [3H]LSD from human 5HT7 receptor at 10 uM
[10] = molecular target: Histamine H3 receptor (Homo sapiens) (UniProt Q9Y5N1); assay: Displacement of [3H]alpha-methylhistamine from human histamine H3 receptor at 10 uM
[11] = molecular target: T4, 5-hydroxytryptamine receptor 2B; assay: Agonist activity at human 5HT2B receptor assessed as 5HT-induced calcium mobilization at 10 uM by FLIPR assay relative to 5HT; type: functional
[12] = molecular target: Histamine H1 receptor (Homo sapiens) (UniProt P35367); assay: Displacement of [3H]Pyrilamine from human histamine H1 receptor at 10 uM
[13] = molecular target: Beta-1 adrenergic receptor (Homo sapiens) (UniProt P08588); assay: Displacement of [125I]Iodopindolol from human adrenergic beta-1 receptor at 10 uM
[14] = molecular target: 5-hydroxytryptamine receptor 1A (Homo sapiens) (UniProt P08908); assay: Displacement of [3H]8-OH-DPAT from human 5HT1A receptor at 10 uM
[15] = molecular target: T3, 5-hydroxytryptamine receptor 2C; assay: Agonist activity at human 5HT2C receptor assessed as 5HT-induced calcium mobilization by FLIPR assay; type: functional
[16] = molecular target: T5, Sodium-dependent dopamine transporter; assay: Displacement of [3H][…] from human DAT at 10 uM
[17] = molecular target: T4, 5-hydroxytryptamine receptor 2B; assay: Agonist activity at human 5HT2B receptor assessed as 5HT-induced calcium mobilization by FLIPR assay; type: functional
[18] = molecular target: Muscarinic acetylcholine receptor M5 (Homo sapiens) (UniProt P08912); assay: Displacement of [3H]QNB from human muscarinic M5 receptor at 10 uM
Muscarinic acetylcholine receptor M5 (Homo sapiens), sequence (P08912 whole entry): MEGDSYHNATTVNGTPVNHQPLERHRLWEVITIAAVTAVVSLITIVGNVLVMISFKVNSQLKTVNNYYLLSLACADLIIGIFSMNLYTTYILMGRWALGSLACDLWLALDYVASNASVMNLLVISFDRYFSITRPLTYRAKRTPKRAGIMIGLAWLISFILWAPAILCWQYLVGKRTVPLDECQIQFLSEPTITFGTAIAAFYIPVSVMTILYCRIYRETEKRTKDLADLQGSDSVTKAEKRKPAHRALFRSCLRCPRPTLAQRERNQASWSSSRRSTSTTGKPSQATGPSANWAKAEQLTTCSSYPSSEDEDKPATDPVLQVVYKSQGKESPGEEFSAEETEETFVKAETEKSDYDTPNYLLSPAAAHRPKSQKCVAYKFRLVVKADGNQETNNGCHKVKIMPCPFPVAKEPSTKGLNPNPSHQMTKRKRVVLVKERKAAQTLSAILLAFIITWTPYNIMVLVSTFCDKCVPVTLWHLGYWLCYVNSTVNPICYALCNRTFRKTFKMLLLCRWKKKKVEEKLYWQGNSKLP

[19] = molecular target: 5-hydroxytryptamine receptor 3A (Homo sapiens) (UniProt P46098); assay: Displacement of [3H]LY278584 from human 5HT3 receptor at 10 uM
5-hydroxytryptamine receptor 3A (Homo sapiens), sequence (P46098 whole entry): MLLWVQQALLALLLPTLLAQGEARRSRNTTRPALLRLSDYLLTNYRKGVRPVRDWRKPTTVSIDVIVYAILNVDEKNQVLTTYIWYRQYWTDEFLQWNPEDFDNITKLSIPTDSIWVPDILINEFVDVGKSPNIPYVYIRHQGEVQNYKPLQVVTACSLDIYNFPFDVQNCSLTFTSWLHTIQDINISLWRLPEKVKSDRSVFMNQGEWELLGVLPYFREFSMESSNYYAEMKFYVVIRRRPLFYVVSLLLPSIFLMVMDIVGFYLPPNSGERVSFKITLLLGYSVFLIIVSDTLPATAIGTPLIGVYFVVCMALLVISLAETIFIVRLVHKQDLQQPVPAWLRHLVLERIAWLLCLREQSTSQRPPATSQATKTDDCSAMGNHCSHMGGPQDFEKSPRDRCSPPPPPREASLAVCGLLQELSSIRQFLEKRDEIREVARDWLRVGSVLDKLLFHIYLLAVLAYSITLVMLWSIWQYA

[20] = molecular target: Muscarinic acetylcholine receptor M4 (Homo sapiens) (UniProt P08173); assay: Displacement of [3H]QNB from human muscarinic M4 receptor at 10 uM
[21] = molecular target: T7, Sodium-dependent noradrenaline transporter (Homo sapiens, UniProt P23975); assay: Displacement of [3H]Nisoxetine from human NET
T7 sequence (P23975 whole entry): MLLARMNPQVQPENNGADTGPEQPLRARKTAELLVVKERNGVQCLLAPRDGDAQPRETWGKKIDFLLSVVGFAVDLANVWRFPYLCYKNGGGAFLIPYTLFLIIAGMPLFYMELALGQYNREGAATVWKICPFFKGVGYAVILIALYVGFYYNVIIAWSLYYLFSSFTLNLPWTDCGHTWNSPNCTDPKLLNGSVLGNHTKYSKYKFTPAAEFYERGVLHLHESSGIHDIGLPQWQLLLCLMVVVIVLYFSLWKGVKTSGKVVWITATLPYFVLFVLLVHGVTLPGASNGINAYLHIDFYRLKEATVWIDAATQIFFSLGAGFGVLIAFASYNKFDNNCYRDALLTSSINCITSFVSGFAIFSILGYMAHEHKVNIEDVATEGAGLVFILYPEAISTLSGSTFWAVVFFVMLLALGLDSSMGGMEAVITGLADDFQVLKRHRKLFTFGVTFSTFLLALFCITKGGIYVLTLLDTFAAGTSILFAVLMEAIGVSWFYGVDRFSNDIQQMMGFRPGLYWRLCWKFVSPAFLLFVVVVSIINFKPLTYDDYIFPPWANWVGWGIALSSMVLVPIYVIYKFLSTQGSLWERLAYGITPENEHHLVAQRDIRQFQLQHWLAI

[22] = molecular target: D(4) dopamine receptor (Homo sapiens) (UniProt P21917); assay: Displacement of [3H]N-methylspiperone from human dopamine D4 receptor at 10 uM
Homo sapiens = species: Homo sapiens; assay: Displacement of [3H]DTG from human sigma 2 receptor at 10 uM
[23] = molecular target: T6, Sodium-dependent serotonin transporter; assay: Displacement of [3H]Citalopram from human SERT at 10 uM
[24] = molecular target: Muscarinic acetylcholine receptor M3 (Homo sapiens) (UniProt P20309); assay: Displacement of [3H]QNB from human muscarinic M3 receptor at 10 uM
[25] = molecular target: Beta-2 adrenergic receptor (Homo sapiens) (UniProt P07550); assay: Displacement of [125I]Iodopindolol from human adrenergic beta2 receptor at 10 uM
[26] = molecular target: Delta-type opioid receptor (Homo sapiens) (UniProt P41143); assay: Displacement of [3H]DADLE from human delta opioid receptor at 10 uM
[27] = molecular target: D(1A) dopamine receptor (Homo sapiens) (UniProt P21728); assay: Displacement of [3H][…] from human dopamine D1 receptor at 10 uM
D(1A) dopamine receptor (Homo sapiens), sequence (P21728 whole entry): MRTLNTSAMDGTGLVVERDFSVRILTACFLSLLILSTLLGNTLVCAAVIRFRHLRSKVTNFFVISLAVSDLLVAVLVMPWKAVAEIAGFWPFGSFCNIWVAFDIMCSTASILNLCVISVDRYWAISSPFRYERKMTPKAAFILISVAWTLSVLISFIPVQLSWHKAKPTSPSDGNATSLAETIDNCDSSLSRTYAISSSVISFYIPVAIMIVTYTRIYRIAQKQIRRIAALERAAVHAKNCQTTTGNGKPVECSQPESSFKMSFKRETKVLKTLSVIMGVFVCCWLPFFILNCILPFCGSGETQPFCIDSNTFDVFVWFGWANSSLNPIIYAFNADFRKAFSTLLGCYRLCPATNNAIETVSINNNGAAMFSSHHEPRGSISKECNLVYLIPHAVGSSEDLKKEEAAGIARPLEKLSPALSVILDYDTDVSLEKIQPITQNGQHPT

[28] = molecular target: 5-hydroxytryptamine receptor 1E (Homo sapiens) (UniProt P28566); assay: Displacement of [3H]5-HT from human 5HT1E receptor at 10 uM
[29] = molecular target: Histamine H2 receptor (Homo sapiens) (UniProt P25021); assay: Displacement of [3H]Tiotidine from human histamine H2 receptor at 10 uM
[30] = molecular target: Muscarinic acetylcholine receptor M2 (Homo sapiens) (UniProt P08172); assay: Displacement of [3H]QNB from human muscarinic M2 receptor at 10 uM
[31] = molecular target: Alpha-1A adrenergic receptor (Homo sapiens) (UniProt P35348); assay: Displacement of [3H]Prazosin from human adrenergic alpha1A receptor at 10 uM
[32] = molecular target: 5-hydroxytryptamine receptor 1B (Homo sapiens) (UniProt P28222); assay: Displacement of [3H][…] from human 5HT1B receptor at 10 uM
[33] = molecular target: Muscarinic acetylcholine receptor M1 (Homo sapiens) (UniProt P11229); assay: Displacement of [3H]QNB from human muscarinic M1 receptor at 10 uM
[34] = molecular target: Histamine H4 receptor (Homo sapiens) (UniProt Q9H3N8); assay: Displacement of [3H]Histamine from human histamine H4 receptor at 10 uM
[35] = molecular target: Sigma non-opioid intracellular receptor 1 (Homo sapiens) (UniProt Q99720); assay: Displacement of [3H]Pentazocine from human sigma 1 receptor at 10 uM
Sigma non-opioid intracellular receptor 1 (Homo sapiens), sequence (Q99720 whole entry): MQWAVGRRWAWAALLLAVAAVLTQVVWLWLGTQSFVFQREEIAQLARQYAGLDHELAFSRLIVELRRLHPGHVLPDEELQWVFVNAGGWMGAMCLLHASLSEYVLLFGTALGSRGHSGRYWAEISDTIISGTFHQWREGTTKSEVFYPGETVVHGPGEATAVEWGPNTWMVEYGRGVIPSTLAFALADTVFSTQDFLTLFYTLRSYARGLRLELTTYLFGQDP

[36] = molecular target: T4, 5-hydroxytryptamine receptor 2B; assay: Agonist activity at human 5HT2B receptor assessed as 10633-induced calcium mobilization by FLIPR assay; type: functional
[37] = molecular target: Beta-3 adrenergic receptor (Homo sapiens) (UniProt P13945); assay: Displacement of [125I]Iodopindolol from human adrenergic beta3 receptor at 10 uM
[38] = molecular target: 5-hydroxytryptamine receptor 1D (Homo sapiens) (UniProt P28221); assay: Displacement of [3H][…] from human 5HT1D receptor at 10 uM
5-hydroxytryptamine receptor 1D (Homo sapiens), sequence (P28221 whole entry): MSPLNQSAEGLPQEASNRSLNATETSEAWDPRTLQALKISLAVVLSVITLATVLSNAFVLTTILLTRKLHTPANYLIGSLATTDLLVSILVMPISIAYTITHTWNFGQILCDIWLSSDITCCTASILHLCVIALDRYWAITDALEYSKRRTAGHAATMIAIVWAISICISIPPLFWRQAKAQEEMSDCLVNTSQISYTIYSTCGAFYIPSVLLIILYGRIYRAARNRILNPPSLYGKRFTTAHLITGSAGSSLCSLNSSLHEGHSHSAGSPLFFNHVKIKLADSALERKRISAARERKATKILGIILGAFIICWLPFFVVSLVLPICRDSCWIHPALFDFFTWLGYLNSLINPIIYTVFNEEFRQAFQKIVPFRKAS

[39] = molecular target: 5-hydroxytryptamine receptor 5A (Homo sapiens) (UniProt P47898); assay: Displacement of [3H]LSD from human 5HT5A receptor at 10 uM
[40] = molecular target: D(3) dopamine receptor (Homo sapiens) (UniProt P35462); assay: Displacement of [3H]N-methylspiperone from human dopamine D3 receptor at 10 uM
D(3) dopamine receptor (Homo sapiens), sequence (P35462 whole entry): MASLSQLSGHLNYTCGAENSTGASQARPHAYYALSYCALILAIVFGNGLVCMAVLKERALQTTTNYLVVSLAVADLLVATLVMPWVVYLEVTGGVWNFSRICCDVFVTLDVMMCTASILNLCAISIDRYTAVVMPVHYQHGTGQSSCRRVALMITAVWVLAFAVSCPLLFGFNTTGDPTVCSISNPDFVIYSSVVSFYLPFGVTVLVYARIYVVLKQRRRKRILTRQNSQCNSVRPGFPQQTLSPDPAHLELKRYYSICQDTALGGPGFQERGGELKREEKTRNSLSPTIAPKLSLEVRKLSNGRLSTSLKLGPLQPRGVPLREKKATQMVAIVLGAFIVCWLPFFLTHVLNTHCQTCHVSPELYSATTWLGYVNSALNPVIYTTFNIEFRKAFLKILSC

[41] = molecular target: T7, Sodium-dependent noradrenaline transporter; assay: Displacement of [3H]Nisoxetine from human NET at 10 uM
[42] = molecular target: Mu-type opioid receptor (Homo sapiens) (UniProt P35372); assay: Displacement of [3H]DAMGO from human mu opioid receptor at 10 uM
[43] = molecular target: T4, 5-hydroxytryptamine receptor 2B; assay: Antagonist activity at human 5HT2B receptor assessed as inhibition of 10633-induced calcium mobilization by FLIPR assay; type: functional
[44] = molecular target: D(2) dopamine receptor (Homo sapiens) (UniProt P14416); assay: Displacement of [3H]N-methylspiperone from human dopamine D2 receptor at 10 uM
[45] = molecular target: Kappa-type opioid receptor (Homo sapiens) (UniProt P41145); assay: Displacement of [3H]U69593 from human kappa opioid receptor at 10 uM
[46] = molecular target: T3, 5-hydroxytryptamine receptor 2C; assay: Agonist activity at human 5HT2C receptor assessed as 10633-induced calcium mobilization by FLIPR assay; type: functional

T1 sequence (P28223 whole entry): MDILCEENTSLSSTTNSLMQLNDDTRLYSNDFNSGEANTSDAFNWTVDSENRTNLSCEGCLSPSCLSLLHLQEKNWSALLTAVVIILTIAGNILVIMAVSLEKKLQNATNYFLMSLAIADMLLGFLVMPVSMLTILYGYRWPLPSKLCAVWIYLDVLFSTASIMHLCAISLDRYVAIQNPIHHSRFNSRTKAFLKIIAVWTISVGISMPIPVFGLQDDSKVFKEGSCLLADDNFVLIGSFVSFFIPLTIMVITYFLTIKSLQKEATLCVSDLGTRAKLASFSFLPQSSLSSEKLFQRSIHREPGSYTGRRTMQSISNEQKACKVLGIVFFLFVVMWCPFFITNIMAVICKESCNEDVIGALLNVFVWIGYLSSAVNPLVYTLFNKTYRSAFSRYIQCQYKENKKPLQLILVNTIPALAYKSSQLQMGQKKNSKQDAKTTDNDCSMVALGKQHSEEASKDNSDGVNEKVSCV

Structure (SMILES): O=C(NC1CCCCC1)N1OCC2COc3ccccc3C21 (stereo unspecified)
inhibition [1]: 5.5% | inhibition [2]: 28.1% | Ki [3]: > 10 µM | inhibition [4]: 75.5% | Ki [5]: > 10 µM | Ki [6]: 1.77 µM

Structure (SMILES): CCCCNC(=O)N1OCC2CSc3ccc(F)cc3C21 (stereo unspecified)
inhibition [2]: 34.9% | Ki [3]: > 10 µM | inhibition [4]: 92% | Ki [5]: > 10 µM | Ki [6]: 0.489 µM

Structure (SMILES): O=C(Nc1ccccc1)N1OCC2CSc3ccc(F)cc3C21 (stereo unspecified)
inhibition [1]: 33.6% | inhibition [2]: 61.2% | Ki [3]: 5.17 µM | inhibition [4]: 95.3% | Ki [5]: > 10 µM | Ki [6]: 0.223 µM

Structure (SMILES): O=C(NC1CCCCC1)N1OCC2CSc3ccc(F)cc3C21 (stereo unspecified)
Ki [7]: > 10 µM | inhibition [1]: 6.2% | Ki [8]: > 10 µM | inhibition [9]: 27.1% | inhibition [10]: -10% | Efficacy [11]: 0.5% | inhibition [12]: -4.3% | inhibition [13]: 2.4% | inhibition [14]: 36.9% | EC50 [15]: 0.000724 µM | inhibition [16]: 66.3% | EC50 [17]: 0.00398 µM | inhibition [18]: 31.8% | inhibition [19]: -8.7% | inhibition [20]: 44.9% | Ki [21]: > 10 µM | inhibition [22]: 12% | inhibition (Homo sapiens): 1.1% | inhibition [2]: 30% | Ki [3]: > 10 µM | inhibition [23]: 20.4% | inhibition [24]: 20.6% | inhibition [25]: 3.7% | inhibition [26]: -3.2% | inhibition [27]: 14% | inhibition [28]: -7.8% | inhibition [4]: 102% | inhibition [29]: 30.8% | inhibition [30]: 23.7% | inhibition [31]: 37.8% | inhibition [32]: 1.3% | inhibition [33]: 23.4% | inhibition [34]: -0.5% | inhibition [35]: 16.5% | EC50 [36]: > 10 µM | inhibition [37]: 7.1% | inhibition [38]: 4.5% | inhibition [39]: 46.6% | inhibition [40]: 3.2% | inhibition [41]: 34.1% | inhibition [42]: 8.9% | IC50 [43]: 0.0427 µM | Ki [5]: > 10 µM | inhibition [44]: 8.1% | inhibition [45]: 34.6% | EC50 [46]: > 10 µM | Ki [6]: 0.042 µM

Structure (SMILES): CCCNC(=O)N1OCC2CSc3ccc(F)cc3C21 (stereo unspecified)
inhibition [2]: 37.4% | Ki [3]: > 10 µM | inhibition [4]: 93% | Ki [5]: > 10 µM | Ki [6]: 0.384 µM

Structure (SMILES): Cc1ccccc1NC(=O)N1OCC2COc3ccccc3C21 (stereo unspecified)
inhibition [1]: 12.8% | inhibition [2]: 40.2% | Ki [3]: > 10 µM | inhibition [4]: 52.2% | Ki [5]: > 10 µM | Ki [6]: 4 µM

Structure (SMILES): O=C(Nc1ccccc1)N1OCC2COc3ccccc3C21 (stereo unspecified)
inhibition [1]: 11% | inhibition [2]: 56.7% | Ki [3]: > 10 µM | inhibition [4]: 71.6% | Ki [5]: > 10 µM | Ki [6]: 1.61 µM

Structure (SMILES): CC(C)NC(=O)N1OCC2CSc3ccc(F)cc3C21 (stereo unspecified)
inhibition [1]: 2.2% | inhibition [2]: 55.4% | Ki [3]: > 10 µM | inhibition [4]: 89.3% | Ki [5]: > 10 µM | Ki [6]: 0.569 µM

Continued, values first:

inhibition [1]: 0.8% | inhibition [2]: 23.4% | Ki [3]: > 10 µM | inhibition [4]: 35.4% | Ki [5]: > 10 µM | Ki [6]: > 10 µM
Structure (SMILES): CCCCNC(=O)N1OCC2COc3ccccc3C21 (stereo unspecified)

inhibition [1]: 2.4% | inhibition [2]: 14.7% | Ki [3]: > 10 µM | inhibition [4]: 53.5% | Ki [5]: > 10 µM | Ki [6]: 6.6 µM
Structure (SMILES): CCCNC(=O)N1OCC2COc3ccccc3C21 (stereo unspecified)

inhibition [1]: 12% | inhibition [2]: 25.9% | Ki [3]: > 10 µM | inhibition [4]: 43% | Ki [5]: > 10 µM | Ki [6]: > 10 µM
Structure (SMILES): CC(C)(C)NC(=O)N1OCC2COc3ccccc3C21 (stereo unspecified)

inhibition [1]: -0.2% | inhibition [2]: 28.9% | Ki [3]: > 10 µM | inhibition [4]: 14.8% | Ki [5]: > 10 µM | Ki [6]: > 10 µM
Structure (SMILES): CC(C)NC(=O)N1OCC2COc3ccccc3C21 (stereo unspecified)

Source: ChEMBL document CHEMBL1221330, “N-tetrahydrothiochromenoisoxazole-1-carboxamides as selective antagonists of cloned human 5-HT2B” (Bioorg Med Chem Lett, 2010)
